According to US7799821B2, “Therapeutic compounds” (Allergan, Inc., priority 2004, dated 2010):

What was measured:
Assay type in all cases: cell-based
hTP = target: T1, hTP (Homo sapiens, UniProt P21731); experiment: FLIPR calcium signal, hTP; details: FLIPR Ca2+ signal, HEK-293(EBNA); read-out: FUNCTIONAL EC50 HTP
T1 construct: expressed in transfected cells; host or cells: HEK-293(EBNA)
T1 sequence (P21731 1-343): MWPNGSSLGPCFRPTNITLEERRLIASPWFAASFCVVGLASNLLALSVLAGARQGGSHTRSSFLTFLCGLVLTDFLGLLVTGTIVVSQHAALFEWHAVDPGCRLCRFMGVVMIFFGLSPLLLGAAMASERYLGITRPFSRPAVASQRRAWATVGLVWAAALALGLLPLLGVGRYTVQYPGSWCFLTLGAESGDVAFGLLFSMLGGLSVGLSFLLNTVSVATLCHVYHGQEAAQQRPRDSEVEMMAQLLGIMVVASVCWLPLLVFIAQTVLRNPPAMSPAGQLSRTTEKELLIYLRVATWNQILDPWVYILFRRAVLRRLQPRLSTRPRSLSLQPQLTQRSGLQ
Procedure: (§1) HEK-293(EBNA) cells, stably expressing one type or subtype of recombinant human prostaglandin receptors (prostaglandin receptors expressed: hDP/Gqs5; hEP1; hEP2/Gqs5; hEP3A/Gqi5; hEP4/Gqs5; hFP; hIP; hTP), were cultured in 100 mm culture dishes in high-glucose DMEM medium containing 10% fetal bovine serum, 2 mM 1-glutamine, 250 μg/ml geneticin (G418) and 200 μg/ml hygromycin B as selection markers, and 100 units/ml penicillin G, 100 μg/ml streptomycin and 0.25 μg/ml amphotericin B. • (b) Calcium Signal Studies on the FLIPR™
(§2) Cells were seeded at a density of 5×10^4 cells per well in Biocoat® Poly-D-lysine-coated black-wall, clear-bottom 96-well plates (Becton-Dickinson) and allowed to attach overnight in an incubator at 37° C. Cells were then washed two times with HBSS-HEPES buffer (Hanks Balanced Salt Solution without bicarbonate and phenol red, 20 mM HEPES, pH 7.4) using a Denley Cellwash plate washer (Labsystems). After 45 minutes of dye-loading in the dark, using the calcium-sensitive dye Fluo-4 AM at a final concentration of 2 μM, plates were washed four times with HBSS-HEPES buffer to remove excess dye leaving 100 μl in each well. Plates were re-equilibrated to 37° C. for a few minutes.
(§3) Cells were excited with an Argon laser at 488 nm, and emission was measured through a 510-570 nm bandwidth emission filter (FLIPR™, Molecular Devices, Sunnyvale, Calif.). Drug solution was added in a 50 μl volume to each well to give the desired final concentration. The peak increase in fluorescence intensity was recorded for each well. On each plate, four wells each served as negative (HBSS-HEPES buffer) and positive controls (standard agonists: BW245C (hDP); PGE2 (hEP1; hEP2/Gqs5; hEP3A/Gqi5; hEP4/Gqs5); PGF2α (hFP); carbacyclin (hIP); U-46619 (hTP), depending on receptor). The peak fluorescence change in each drug-containing well was then expressed relative to the controls.
(§4) Compounds were tested in a high-throughput (HTS) or concentration-response (CoRe) format. In the HTS format, forty-four compounds per plate were examined in duplicates at a concentration of 10^−5 M. To generate concentration-response curves, four compounds per plate were tested in duplicates in a concentration range between 10^−5 and 10^−11 M. The duplicate values were averaged. In either, HTS or CoRe format each compound was tested on at least 3 separate plates using cells from different passages to give an n≧3.

hEP2/Gqs5 = target: T2, hEP2/Gqs5 (Homo sapiens, UniProt P43116); experiment: FLIPR calcium signal, hEP2; details: FLIPR Ca2+ signal, HEK-293(EBNA); read-out: FUNCTIONAL EC50 HEP2
T2 construct: expressed in transfected cells; host or cells: HEK-293(EBNA)
T2 sequence (P43116 whole entry): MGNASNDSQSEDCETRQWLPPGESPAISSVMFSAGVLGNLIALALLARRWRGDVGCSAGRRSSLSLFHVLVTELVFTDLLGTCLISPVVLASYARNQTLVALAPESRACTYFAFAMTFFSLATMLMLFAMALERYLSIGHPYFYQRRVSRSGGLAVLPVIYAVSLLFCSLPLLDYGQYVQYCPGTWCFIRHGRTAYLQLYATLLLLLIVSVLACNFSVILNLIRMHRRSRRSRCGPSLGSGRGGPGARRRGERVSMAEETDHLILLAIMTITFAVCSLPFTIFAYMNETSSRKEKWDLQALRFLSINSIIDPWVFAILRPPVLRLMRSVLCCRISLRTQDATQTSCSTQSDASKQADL
Procedure: as §1, §2, §3, §4

hDP/Gqs5 = target: T3, hDP/Gqs5 (Homo sapiens, UniProt Q13258); experiment: FLIPR calcium signal, hDP; details: FLIPR Ca2+ signal, HEK-293(EBNA); read-out: FUNCTIONAL EC50 HDP
T3 construct: expressed in transfected cells; host or cells: HEK-293(EBNA)
T3 sequence (Q13258 1-359): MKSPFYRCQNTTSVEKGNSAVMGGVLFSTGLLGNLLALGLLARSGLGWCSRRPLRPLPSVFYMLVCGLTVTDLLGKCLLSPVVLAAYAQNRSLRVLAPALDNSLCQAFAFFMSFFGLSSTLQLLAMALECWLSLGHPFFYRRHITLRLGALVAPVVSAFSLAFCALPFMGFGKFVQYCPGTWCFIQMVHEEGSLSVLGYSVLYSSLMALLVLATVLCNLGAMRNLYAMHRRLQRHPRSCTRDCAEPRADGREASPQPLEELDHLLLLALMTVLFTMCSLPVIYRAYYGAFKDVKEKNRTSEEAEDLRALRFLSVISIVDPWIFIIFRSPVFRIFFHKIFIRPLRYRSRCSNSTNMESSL
Procedure: as §1, §2, §3, §4

| EC50 (hTP) [µM] | EC50 (hEP2/Gqs5) [nM] | EC50 (hDP/Gqs5) [µM] | Structure (SMILES) |
| --- | --- | --- | --- |
| > 10 |  |  | CCCC1(C(O)c2ccc([C@H]3[C@H](O)CC(=O)[C@@H]3C/C=C\CCCC(=O)OC)cc2)CCC1 (stereo partly shown) |
| > 10 | > 10000 |  | COC(=O)CCC/C=C\C[C@H]1C(=O)C[C@@H](O)[C@@H]1c1ccc(C(C)(C)C)cc1 |
|  | 3440 | > 10 | O=C(O)CCCCCC[C@@H]1[C@@H](c2ccc(CC3CCCCC3)cc2)[C@H](O)C[C@H]1Cl |
|  |  | > 10 | CCCC1(C(O)c2cccc(C3C(O)CC(=O)C3Cc3cccc(OCC(=O)O)c3)c2)CCC1 (stereo not shown) |
| > 10 |  |  | O=C(O)CCCCCC[C@H]1C(=O)C[C@@H](O)[C@@H]1c1ccc2c(c1)CCC2O (stereo partly shown) |
| > 10 | 513 |  | O=C(O)CCC/C=C\C[C@@H]1[C@@H](c2ccc(C3(O)CCC3)cc2)[C@H](O)C[C@H]1Cl |
| > 10 | > 10000 |  | COC(=O)CCCCCC[C@@H]1[C@@H](c2ccc(C3(O)CCC3)cc2)[C@H](O)C[C@H]1Cl |
| > 10 | 743 |  | O=C(O)CCCCCC[C@@H]1[C@@H](c2ccc(C3(O)CCC3)cc2)[C@H](O)C[C@H]1Cl |
